From ChEMBL document CHEMBL1130873 (Bioorg Med Chem Lett, 1998)

Key:
[1] = Aerobic cytotoxic activity was evaluated by the growth inhibition of UV4 aerobic cells; format: functional, cell-based; conditions: Cricetulus griseus
[2] = test system: SK-OV-3; test: (§1) Aerobic cytotoxic activity was evaluated by the growth inhibition of SKOV (human ovarian cancer line) aerobic cells; format: functional, cell-based
[3] = Aerobic cytotoxic activity was evaluated by the growth inhibition of AA8 (chinese hamster) aerobic cells; format: functional, cell-based; conditions: Cricetulus griseus, CHO-AA8
[4] = Concentration required to reduce cell survival tunder hypoxic conditions using the UV4 aerobic cells; format: functional, Cricetulus griseus
[5] = test system: SK-OV-3; test: as §1; format: functional
[6] = Concentration required to 10% of controls reduce cell survival under hypoxic conditions using the UV4 aerobic cells; format: functional, Cricetulus griseus

Molecule `NC(=O)c1cc(N(CCCl)CCCl)c([N+](=O)[O-])cc1[N+](=O)[O-]` has an IC50 [1] of 870 µM, an IC50 [2] greater than 1 mM and an IC50 [3] of 1450 µM. For the same molecule, the CT10 [4] was 95 µM.

`CN(C)CCNC(=O)c1cc(N(CCCl)CCCl)c([N+](=O)[O-])cc1[N+](=O)[O-]` showed a CT10 [5] of 1300 µM, an IC50 [1] of 3.1 µM and an IC50 [3] of 220 µM. The CT10 [6] was 400 µM.
